# How the values were obtained:
# [1] = Toxicity in A549 cells (ADV-0172); type: cell-based; conditions: human, A549 cells
# Zika Virus [2] = test: Zika prevention, CPE inhibition (Neutral Red), Huh7, 4 h pre-incubation (Zika-138); type: cell-based; conditions: Zika virus, Huh-7, Neutral Red (Cytopathic effect), pre-incubated 4 hours prior to infection, read-out: EC50
# Vero76 = conditions: African green monkey
# Zika Virus [3] = test: Zika prevention, virus yield reduction (VYR), Huh7, 4 h pre-incubation (Zika-138); type: cell-based; conditions: for Virus Titer: 4 hr pre-incubation, Huh7 cells
# Experimental: An experiment was carried out as specified in Example 8. In a Zika Prevention Trial, MPA was pre-incubated with human cells 4 hours or 24 hours before Zika virus infection.
# Zika Virus [4] = test: Zika prevention, CPE inhibition (Neutral Red), Huh7, 24 h pre-incubation (Zika-138); type: cell-based; conditions: Zika virus, Huh-7, Neutral Red (Cytopathic effect), pre-incubated 24 hours prior to infection, read-out: EC50
smiles,measurement,setting,value
"COc1c(C)c2c(c(O)c1C/C=C(\C)CCC(=O)O)C(=O)OC2 [EP1601, 6-(4-hydroxy-6-methoxy-7-methyl-3-oxo-1,3-dihydroisobenzofuran-5-yl)-4-methyl-hex-4-enoic acid]",CC50,[1]; Neutral Red (Toxicity),12 µg/mL
same,CC50,[1]; Visual (Toxicity),15 µg/mL
same,EC50,Zika Virus [2],0.17 µg/mL
same,CC50,Vero76,17 µg/mL
same,Virus Titer,Zika Virus [3]; MPA 0.1 μg/ml,4.5 Log10 CCID50/0.1 ml
same,Virus Titer,Zika Virus [3]; MPA 1 μg/ml,4.5 Log10 CCID50/0.1 ml
same,Virus Titer,Zika Virus [3]; MPA 10 μg/ml,4.5 Log10 CCID50/0.1 ml
same,Virus Titer,Zika Virus [3]; MPA 32 μg/ml,4.5 Log10 CCID50/0.1 ml
same,Virus Titer,Zika Virus [3]; MPA 100 μg/ml,0.67 Log10 CCID50/0.1 ml
same,EC90,"Zika Virus [3]; Zika virus, Huh-7, Visual (Virus yield reduction), Huh7, pre-incubated 4 hours prior to infection, read-out: EC90",42.7 µg/mL
same,mitigation of infection by Zika virus,Zika Virus [3]; given 4 hours before the infection,strongly mitigated the infection
same,EC50,Zika Virus [4],0.55 µg/mL

# Reference: US20250144066A1, “Prevention and Treatment of Parasitic Infections” (priority 2017, published 2025)
